Patent US9028856B2, “Synergistic pesticide compositions” (priority 2008, dated 2015)

Key:
[1] = tested on: Aedes aegypti mosquito; assay: USDA Petri Dish Method, 3 min exposure to treated glazed tile; format: in vivo
In short: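 Resmethrin or clothianidin in acetone, with or without adjuvant, applied to glazed tile and dried overnight; twenty 4-6 day old female mosquitoes exposed 3 minutes, then moved to clean index card. Knockdown scored at intervals over hours; mortality at 24 hours with sucrose provided; at least three replicates.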

[2] = tested on: Musca domestica, susceptible strain WHO(N); assay: Efficacy of formulations on surfaces (glazed/unglazed tiles), house flies, continuous exposure; format: in vivo; conditions: for % KD and Mortality 15′ / % KD and Mortality 30′ / % KD and Mortality 1 h / % KD and Mortality 2 h / % KD and Mortality 3 h / % KD and Mortality 4 h / % KD and Mortality 6 h / % KD and Mortality 24 h: Table 114, EC formulation, continuous exposure
Method: A flat fan nozzle (type SS 8003-E) in a spray cabin was moved automatically over a defined area where the solutions were sprayed very evenly onto the surfaces. The formulation was mixed with water to give a concentration which corresponded to the desired quantity of a.i./m^2. A defined quantity of this solution was sprayed onto the area (nominal 350 liter/ha=0.77 ml per surface).
All surfaces were provided with talcum-coated glass rings (diameter 9.5 cm, height 5.5 cm) one day later.
The test insects were anesthetized with CO2, 20 individuals were placed onto the treated surfaces and the glass ring was covered with wire gauze ring.
Knock down was determined after 15 and 30′, 1, 2, 4 and 6 hours, mortality after 1 day exposure.
Each test consisted of at least one replicate and any additional replicates are noted.
Test Insects: House flies (Musca domestica) of both sexes, susceptible strain WHO(N) and resistant strain Reichswald
Evaluation: Mortality was evaluated cumulatively at different times. […]
Test Insects: Culex quinquefasciatus (adults) (3 minutes exposure time according to USDA Petri Dish Method), Musca domestica (adults), susceptible and resistant strain, Blattella germanica (males), Cimex lectularius (adults) (all: continuous exposure time)
Application: The EC formulation (diluted with water 1:9) were applied as 0.85 ml solutions onto glazed tiles (15 cm×15 cm)
Evaluation: Knock down after 15, and 30 minutes, 1, 2, 3, 4, 6 and 24 hours (mortality)
Test Insects: Culex quinquefasciatus (adults, susceptible) (3 minutes exposure time according to USDA Petri Dish Method), Musca domestica (adults, susceptible and resistant), Blattella germanica (males, susceptible) (both: continuous exposure time)
Formulations: Insecticide with or without 10% Compound A (as EC), to be diluted with water (1 part formulation+9 parts water)
Evaluation: Knock down after 3, 9 (mosquitoes only), 15, and 30 minutes, 1, 2, 3, 4 and 24 hours (mortality) […]

[3] = Table 56, Aedes aegypti, glazed tile, 3 min exposure
[4] = Table 48, fipronil/adjuvant in acetone, glazed tile, 3 min exposure
[5] = 0.1% = 50 mg Bendiocarb/m^2 on glazed tiles
[6] = 0.1% = 50 mg imidacloprid/m^2 on glazed tiles
[7] = 0.02% = 10 mg Ethiprole/m^2 on glazed tiles
[8] = 0.001% deltamethrin in acetone on glazed tiles, with or without adjuvant

## CC[S+]([O-])c1c(C#N)nn(-c2c(Cl)cc(C(F)(F)F)cc2Cl)c1N (centres unmarked) [Ethiprole (1%)]
[1]; [3]
  Average % Knockdown & Mortality after 4 hr: 17%
  Average % Knockdown & Mortality after 6 hr: 27%
  Average % Knockdown & Mortality after 24 hr: 46%
[1]; Table 56, Aedes aegypti, glazed tile, 3 min exposure, adjuvant = Compound A 1% + Compound B 0.5%, 2 hr
  Average % Knockdown & Mortality after 2 hr: 2%

## N#Cc1nn(-c2c(Cl)cc(C(F)(F)F)cc2Cl)c(N)c1[S+]([O-])C(F)(F)F (centres unmarked) [Fipronil (.01%)]
[1]; [4]
  Average % Knockdown & Mortality after 15 min: 5%
  Average % Knockdown & Mortality after 30 min: 6%
  Average % Knockdown & Mortality after 60 min: 19%
  Average % Knockdown & Mortality after 4 hr: 42%
  Average % Knockdown & Mortality after 6 hr: 56%
  Average % Knockdown & Mortality after 24 hr: 72%

## CNC(=O)Oc1cccc2c1OC(C)(C)O2 [bendiocarb]
[2]; [5]
  % KD and Mortality 15′: 25%
  % KD and Mortality 30′: 65%
  % KD and Mortality 1 h: 85%
  % KD and Mortality 2 h: 85%
  % KD and Mortality 3 h: 85%
  % KD and Mortality 4 h: 85%
  % KD and Mortality 6 h: 85%
  % KD and Mortality 24 h: 95%

## O=[N+]([O-])NC1=NCCN1Cc1ccc(Cl)nc1 [imidacloprid]
[2]; [6]
  % KD and Mortality 15′: 25%
  % KD and Mortality 30′: 55%
  % KD and Mortality 1 h: 40%
  % KD and Mortality 2 h: 95%
  % KD and Mortality 3 h: 95%
  % KD and Mortality 4 h: 95%
  % KD and Mortality 6 h: 95%
  % KD and Mortality 24 h: 100%

## CC[S+]([O-])c1c(C#N)nn(-c2c(Cl)cc(C(F)(F)F)cc2Cl)c1N (centres unmarked) [ethiprole]
[2]; [7]
  % KD and Mortality 15′: 0%
  % KD and Mortality 30′: 0%
  % KD and Mortality 1 h: 0%
  % KD and Mortality 2 h: 5%
  % KD and Mortality 3 h: 15%
  % KD and Mortality 4 h: 15%
  % KD and Mortality 6 h: 25%
  % KD and Mortality 24 h: 95%
[1]; ethiprole 0.01% AI with or without adjuvant
  mortality rate (peak / increased over time), FIG. 50: 15-18%

## N#Cc1nn(-c2c(Cl)cc(C(F)(F)F)cc2Cl)c(N)c1[S+]([O-])C(F)(F)F (centres unmarked) [Fipronil (.001%)]
[1]; [4]
  Average % Knockdown & Mortality after 15 min: 0%
  Average % Knockdown & Mortality after 30 min: 0%
  Average % Knockdown & Mortality after 60 min: 0%
  Average % Knockdown & Mortality after 4 hr: 0%
  Average % Knockdown & Mortality after 6 hr: 3%
  Average % Knockdown & Mortality after 24 hr: 3%

## CC1(C)[C@H](C(=O)O[C@H](C#N)c2cccc(Oc3ccccc3)c2)[C@@H]1C=C(Br)Br [deltamethrin]
[2]; 0.001% deltamethrin in acetone on glazed tiles, with or without 1% Compound A + 0.5% Compound B
  % of the flies killed after 15′: 2%
[2]; [8]
  % of the flies killed after 30′: 18%
  % of the flies killed after 1 h: 58%
  % of the flies killed after 2 h: 80%
  % of the flies killed after 3 h: 88%
  % of the flies killed after 24 h: 92%
